Assay results from patent US8796268B2, “Heteroaryls and uses thereof” (Millennium Pharmaceuticals, Inc., priority 2010, dated 2014).

What was measured:
Assay type in all cases: biochemical
Human PI3K alpha = molecular target: T1, Human PI3K alpha (Homo sapiens, UniProt P42336); assay: Human PI3K alpha enzyme assay (HTRF); settings: concentration not given, b1387 states 1.1 μM for PI3K α and β; for inhibition at 1.1 µM: read-out: p110 alpha Percent Inhibition
T1 construct: His (N); host or cells: SF9 insect cells (baculovirus)
T1 sequence (P42336 whole entry): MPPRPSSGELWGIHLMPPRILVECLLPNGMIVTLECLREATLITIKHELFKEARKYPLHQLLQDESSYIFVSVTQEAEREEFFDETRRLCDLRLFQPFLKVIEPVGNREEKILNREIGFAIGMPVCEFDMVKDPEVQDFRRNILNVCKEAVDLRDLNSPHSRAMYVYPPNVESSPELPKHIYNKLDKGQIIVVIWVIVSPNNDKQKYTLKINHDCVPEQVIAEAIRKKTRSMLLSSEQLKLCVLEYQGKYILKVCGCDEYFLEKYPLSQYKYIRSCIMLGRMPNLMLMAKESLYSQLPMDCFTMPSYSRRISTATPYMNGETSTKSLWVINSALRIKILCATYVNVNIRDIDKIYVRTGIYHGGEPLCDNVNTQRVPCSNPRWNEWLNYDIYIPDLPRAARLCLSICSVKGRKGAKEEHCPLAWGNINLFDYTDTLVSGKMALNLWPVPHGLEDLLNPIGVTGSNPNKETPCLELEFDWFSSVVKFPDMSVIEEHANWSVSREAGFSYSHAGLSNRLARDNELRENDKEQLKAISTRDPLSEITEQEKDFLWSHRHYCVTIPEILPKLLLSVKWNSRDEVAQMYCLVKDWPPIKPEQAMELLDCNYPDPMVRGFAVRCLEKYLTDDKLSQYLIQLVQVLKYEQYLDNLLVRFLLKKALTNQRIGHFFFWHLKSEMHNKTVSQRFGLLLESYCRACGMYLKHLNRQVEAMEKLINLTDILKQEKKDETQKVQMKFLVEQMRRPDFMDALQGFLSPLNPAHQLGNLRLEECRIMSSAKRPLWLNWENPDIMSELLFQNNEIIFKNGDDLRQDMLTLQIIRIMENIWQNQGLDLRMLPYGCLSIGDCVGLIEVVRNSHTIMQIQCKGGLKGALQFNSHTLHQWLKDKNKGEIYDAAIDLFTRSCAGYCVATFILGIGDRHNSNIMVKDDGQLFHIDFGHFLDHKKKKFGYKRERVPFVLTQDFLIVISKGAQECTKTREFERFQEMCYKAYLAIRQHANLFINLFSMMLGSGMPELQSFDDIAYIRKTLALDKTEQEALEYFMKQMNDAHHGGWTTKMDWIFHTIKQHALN
T1 sequence (P27986 whole entry partner): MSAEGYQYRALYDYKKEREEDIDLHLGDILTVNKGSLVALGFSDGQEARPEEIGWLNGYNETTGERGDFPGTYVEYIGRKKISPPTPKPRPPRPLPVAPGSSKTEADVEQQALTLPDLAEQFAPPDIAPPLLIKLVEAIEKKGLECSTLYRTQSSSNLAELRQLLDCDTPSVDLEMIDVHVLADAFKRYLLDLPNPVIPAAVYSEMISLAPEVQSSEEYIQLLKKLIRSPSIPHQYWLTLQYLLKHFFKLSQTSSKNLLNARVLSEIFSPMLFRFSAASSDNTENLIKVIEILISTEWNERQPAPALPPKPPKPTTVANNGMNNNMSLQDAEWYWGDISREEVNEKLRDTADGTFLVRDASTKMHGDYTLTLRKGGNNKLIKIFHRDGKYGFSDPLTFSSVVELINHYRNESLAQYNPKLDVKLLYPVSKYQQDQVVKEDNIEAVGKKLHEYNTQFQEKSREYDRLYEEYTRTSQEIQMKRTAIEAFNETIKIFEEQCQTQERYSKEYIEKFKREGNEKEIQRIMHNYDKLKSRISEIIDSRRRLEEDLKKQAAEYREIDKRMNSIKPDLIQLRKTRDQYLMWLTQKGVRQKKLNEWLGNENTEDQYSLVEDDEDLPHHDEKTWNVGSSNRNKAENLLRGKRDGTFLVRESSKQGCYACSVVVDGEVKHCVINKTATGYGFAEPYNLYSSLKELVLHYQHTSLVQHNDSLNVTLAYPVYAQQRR

Human PI3K delta = molecular target: T2, Human PI3K delta (Homo sapiens, UniProt O00329); assay: Human PI3K delta enzyme assay (HTRF); settings: concentration not given, b1389 states 1.0 μM for PI3K δ and γ; for inhibition at 1 µM: read-out: p110 delta Percent Inhibition
T2 construct: His (N); host or cells: SF9 insect cells (baculovirus)
T2 sequence (O00329 whole entry): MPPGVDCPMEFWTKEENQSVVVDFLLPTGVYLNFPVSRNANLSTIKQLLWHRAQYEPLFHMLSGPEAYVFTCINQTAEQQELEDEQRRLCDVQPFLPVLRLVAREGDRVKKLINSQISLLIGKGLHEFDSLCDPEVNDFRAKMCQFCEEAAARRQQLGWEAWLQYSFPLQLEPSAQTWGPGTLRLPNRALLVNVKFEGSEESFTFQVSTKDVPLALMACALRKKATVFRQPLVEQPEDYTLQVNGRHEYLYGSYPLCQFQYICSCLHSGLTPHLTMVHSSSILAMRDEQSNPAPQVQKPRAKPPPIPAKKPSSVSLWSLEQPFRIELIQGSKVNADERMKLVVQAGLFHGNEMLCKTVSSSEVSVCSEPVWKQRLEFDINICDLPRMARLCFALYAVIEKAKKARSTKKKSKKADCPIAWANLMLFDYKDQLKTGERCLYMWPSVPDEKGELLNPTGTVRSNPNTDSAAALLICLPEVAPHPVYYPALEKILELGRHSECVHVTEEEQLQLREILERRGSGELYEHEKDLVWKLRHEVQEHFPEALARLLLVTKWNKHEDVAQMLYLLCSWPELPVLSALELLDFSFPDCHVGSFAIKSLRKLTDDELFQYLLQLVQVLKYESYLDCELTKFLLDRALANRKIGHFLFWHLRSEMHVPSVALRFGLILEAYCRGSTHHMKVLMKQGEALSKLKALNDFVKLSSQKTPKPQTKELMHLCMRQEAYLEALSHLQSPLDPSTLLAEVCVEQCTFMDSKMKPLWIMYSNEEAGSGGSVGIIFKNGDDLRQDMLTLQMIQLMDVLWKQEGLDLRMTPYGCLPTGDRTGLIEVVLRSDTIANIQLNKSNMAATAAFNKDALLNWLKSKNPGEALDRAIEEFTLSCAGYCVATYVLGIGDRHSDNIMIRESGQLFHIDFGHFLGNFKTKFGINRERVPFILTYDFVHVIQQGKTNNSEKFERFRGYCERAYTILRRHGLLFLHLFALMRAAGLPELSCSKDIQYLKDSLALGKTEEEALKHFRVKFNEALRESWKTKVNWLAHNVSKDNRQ
T2 sequence (P27986 whole entry partner): as the sequence (P27986 whole entry partner) above
Excerpt: (§1) The catalytic subunits of PI3Ks are cloned into either pDEST8(p110 alpha) or pDEST10(p110beta, p110delta, and p110gamma) as N-terminal His tagged fusion proteins using the Gateway system (Invitrogen, catalog#11804-010 for pDEST8 and 11806-015 for pDEST10). The sequences are verified before recombinant protein expression using the Baculovirus Expression System with Gateway® Technology. The accession numbers for the subunits are as follows: • p110 alpha (GB:U79143) • p110beta (GB: S67334) • p110delta (GB: U86453) • p110gamma (GB: X83368) • The regulatory subunits of PI3Ks are cloned into pDEST8 as un-tagged protein using the Gateway system (Catalog#11804-010). The sequences are verified before recombinant protein expression using the Baculovirus Expression System with Gateway® Technology. The accession numbers for the subunits are as following: • p85 alpha (GB: BC030815) • p101(GB: AB028925) • VPS34 (accession number GB:BC033004) is cloned into pDEST20—Thombin as N-terminal GST tagged fusion proteins using the Gateway system (Invitrogen, catalog#11804-013). The sequences are verified before recombinant protein expression using the Baculovirus Expression System with Gateway® Technology.
(§2) For expression of the p110 complexes, the p85 (MOI of 4) is co-infected with p110 alpha, beta, and delta respectively (1MOI) in SF9 cells and harvested at 60 hours post co-infection. P110 gamma was infected at 1 MOI and harvested at 60 hours post infection.
(§3) For purification, PI3Ks are purified by Ni-NTA Agarose (Qiagen #30250) followed by Mono Q 10/100 GL (Ge Healthcare #17-5167-01). VPS34 is purified by Glutathione Sepharose 4 Fast Flow (GE Healthcare #17-5132-03) followed by HiTrap Q (GE Healthcare #17-1153-01).
(§4) 0.5 uL compounds in DMSO are added to wells of a 384 well microtitre plate (Corning 3575). At room temperature: 10 ul PI3K reaction buffer (50 mM Hepes, 5 mM DTT, 150 mM NaCl, 10 mM beta-glycerophosphate, 10 mM MgCl2, 0.25 mM sodium cholate and 0.001% CHAPS, pH 7.00) containing ATP (25 uM, Promega) is added followed immediately by 10 ul PI3K reaction buffer containing di-C8 P1(4,5)P2 (3.5 uM, CellSignals) and PI3Kalpha (0.4875 nM, Millennium Protein Sciences Group) and the mixture is incubated with shaking at room temperature for 30 minutes. Then 5 ul PI3K stop mix (50 mM Hepes, 5 mM DTT, 150 mM NaCl, 0.01% Tween-20, 15 mM EDTA and 25 nM biotin-PI(3,4,5)P3 (Echelon) is added to quench the reaction followed immediately by addition of 5 ul HTRF detection mix (50 mM Hepes, 5 mM DTT, 150 mM NaCl, 0.01% Tween-20, 40 mM KF, 1.0 nM GST:GRP-1 PH domain (Millennium Protein Sciences Group), 15 nM Streptavidin-XL (CisBio) and 0.375 nM anti-GST Eu++ antibody (CisBio) at pH 7.00). The plates are then incubated for 1 hour at room temperature with shaking and then read on a BMG PheraStar Plus reader.
(§5) 2) Human PI3K beta, delta and gamma isoforms are tested using the procedure described for PI3K alpha above but with the following changes: PI3K beta (5.25 nM), PI3K delta (0.75 nM) and PI3K gamma (5 nM). All isoforms supplied by Millennium Protein Science Group.
(§6) For the assay methods described above, test compound percent inhibition, at various concentrations, is calculated relative to control (DMSO and EDTA) treated samples. Compound concentration versus percent inhibition curves are fitted to generate IC50 values. One skilled in the art will appreciate that the values generated either as percentage inhibition at a single concentration or IC50 values are subject to experimental variation.

Human PI3K beta = molecular target: T3, Human PI3K beta (Homo sapiens, UniProt P42338); assay: Human PI3K beta enzyme assay (HTRF); settings: concentration not given, b1387 states 1.1 μM for PI3K α and β; for inhibition at 1.1 µM: read-out: p110 beta Percent Inhibition
T3 construct: His (N); host or cells: SF9 insect cells (baculovirus)
T3 sequence (P42338 whole entry): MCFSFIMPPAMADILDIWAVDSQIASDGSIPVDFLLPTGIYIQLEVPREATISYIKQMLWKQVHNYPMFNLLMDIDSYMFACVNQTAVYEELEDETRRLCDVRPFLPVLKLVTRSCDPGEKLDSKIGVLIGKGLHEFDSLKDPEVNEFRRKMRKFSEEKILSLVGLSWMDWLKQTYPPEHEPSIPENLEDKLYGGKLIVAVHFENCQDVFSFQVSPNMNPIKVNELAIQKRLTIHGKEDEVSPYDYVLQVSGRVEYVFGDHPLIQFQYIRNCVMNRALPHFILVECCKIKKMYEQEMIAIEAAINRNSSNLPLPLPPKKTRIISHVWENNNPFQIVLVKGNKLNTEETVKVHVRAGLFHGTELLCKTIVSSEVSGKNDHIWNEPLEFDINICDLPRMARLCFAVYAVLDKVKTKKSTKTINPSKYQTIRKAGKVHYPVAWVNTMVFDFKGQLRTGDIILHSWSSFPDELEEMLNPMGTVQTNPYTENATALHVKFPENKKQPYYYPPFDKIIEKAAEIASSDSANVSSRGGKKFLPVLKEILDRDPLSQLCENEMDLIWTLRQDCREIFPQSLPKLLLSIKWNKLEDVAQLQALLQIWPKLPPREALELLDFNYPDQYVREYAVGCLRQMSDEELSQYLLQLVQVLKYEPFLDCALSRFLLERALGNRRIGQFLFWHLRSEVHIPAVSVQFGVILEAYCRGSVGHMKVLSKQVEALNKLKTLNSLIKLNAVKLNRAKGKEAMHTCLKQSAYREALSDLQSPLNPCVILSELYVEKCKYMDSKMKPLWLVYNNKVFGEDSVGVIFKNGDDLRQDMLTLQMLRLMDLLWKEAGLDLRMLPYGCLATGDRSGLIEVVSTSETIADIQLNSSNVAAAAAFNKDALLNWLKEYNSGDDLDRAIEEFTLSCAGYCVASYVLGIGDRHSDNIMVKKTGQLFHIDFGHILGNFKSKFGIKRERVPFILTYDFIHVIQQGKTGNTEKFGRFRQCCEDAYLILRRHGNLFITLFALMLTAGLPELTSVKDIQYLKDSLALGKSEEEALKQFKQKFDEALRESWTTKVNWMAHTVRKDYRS
T3 sequence (P27986 whole entry partner): as the sequence (P27986 whole entry partner) above
In short: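 Compounds were mixed with 25 uM ATP, then with 3.5 uM di-C8 PI(4,5)P2 and His-tagged PI3K isoform (β 5.25 nM, δ 0.75 nM, γ 5 nM) at pH 7.00. After 30 min at room temperature, EDTA stopped the reaction and PIP3 was measured by HTRF over 1 h.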

Human PI3K gamma = molecular target: T4, Human PI3K gamma (Homo sapiens, UniProt P48736); assay: Human PI3K gamma enzyme assay (HTRF); settings: concentration not given, b1389 states 1.0 μM for PI3K δ and γ; for inhibition at 1 µM: read-out: p110 gamma Percent Inhibition
T4 construct: His (N); host or cells: SF9 insect cells (baculovirus)
T4 sequence (P48736 whole entry): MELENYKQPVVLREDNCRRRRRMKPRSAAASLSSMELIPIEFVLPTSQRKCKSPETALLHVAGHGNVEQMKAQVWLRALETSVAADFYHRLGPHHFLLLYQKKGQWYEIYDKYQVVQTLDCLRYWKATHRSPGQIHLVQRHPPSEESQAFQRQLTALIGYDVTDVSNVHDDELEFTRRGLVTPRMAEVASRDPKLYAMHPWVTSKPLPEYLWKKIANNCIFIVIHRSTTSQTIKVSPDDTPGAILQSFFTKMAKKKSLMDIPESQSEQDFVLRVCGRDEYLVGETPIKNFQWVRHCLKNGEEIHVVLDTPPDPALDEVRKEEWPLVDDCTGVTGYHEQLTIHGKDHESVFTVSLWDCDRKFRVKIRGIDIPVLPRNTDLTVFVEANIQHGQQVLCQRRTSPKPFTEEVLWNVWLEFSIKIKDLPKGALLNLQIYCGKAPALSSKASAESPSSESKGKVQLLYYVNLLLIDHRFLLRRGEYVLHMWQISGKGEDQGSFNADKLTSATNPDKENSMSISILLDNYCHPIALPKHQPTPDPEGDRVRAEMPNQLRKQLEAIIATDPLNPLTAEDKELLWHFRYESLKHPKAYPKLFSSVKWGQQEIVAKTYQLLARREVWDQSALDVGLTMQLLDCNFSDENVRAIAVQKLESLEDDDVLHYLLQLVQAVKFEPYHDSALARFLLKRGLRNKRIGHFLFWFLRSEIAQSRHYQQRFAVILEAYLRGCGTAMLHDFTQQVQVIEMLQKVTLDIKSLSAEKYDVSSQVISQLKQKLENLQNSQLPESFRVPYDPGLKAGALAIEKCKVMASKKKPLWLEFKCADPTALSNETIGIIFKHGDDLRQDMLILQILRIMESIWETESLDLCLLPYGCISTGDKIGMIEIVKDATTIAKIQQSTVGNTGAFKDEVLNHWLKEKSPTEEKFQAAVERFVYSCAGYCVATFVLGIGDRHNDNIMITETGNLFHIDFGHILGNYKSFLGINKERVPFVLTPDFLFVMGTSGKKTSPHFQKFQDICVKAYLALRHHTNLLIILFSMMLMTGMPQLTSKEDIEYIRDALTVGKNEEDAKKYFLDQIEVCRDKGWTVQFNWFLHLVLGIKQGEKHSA
Excerpt: as §1, §2, §3, §4, §5, §6

SMILES | p110 alpha Percent Inhibition (Human PI3K alpha) [%] | inhibition at 1 µM (Human PI3K delta) [%] | inhibition at 1.1 µM (Human PI3K beta) [%] | inhibition at 1 µM (Human PI3K gamma) [%] | inhibition at 1.1 µM (Human PI3K alpha) [%] | p110 delta Percent Inhibition (Human PI3K delta) [%] | p110 beta Percent Inhibition (Human PI3K beta) [%] | p110 gamma Percent Inhibition (Human PI3K gamma) [%]
CC(=O)Nc1cc(-c2cc(C(c3ccc(Cl)cc3)N3CC(N(C)C)C3)c(-c3nnc[nH]3)s2)ccn1 (stereo not drawn) [Compound 144] | 63 | 111 | 94 | 19 |  |  |  | 
CC(=O)Nc1cc(-c2cc(C(O)(CCCN(C)C)c3ccc(Cl)cc3)c(-c3nnc[nH]3)s2)ccn1 (stereo not drawn) [Compound 145] |  | 97 | 98 | 9 | 64 |  |  | 
O=C(Nc1cc(-c2cc(C(c3ccc(Cl)cc3)N3CCNCC3)c(-c3nnc[nH]3)s2)ccn1)C1CC1 (stereo not drawn) [Compound 146] |  | 110 | 103 | 23 | 67 |  |  | 
OC(c1ccc(Cl)cc1)c1cc(-c2ccnc(Nc3ncco3)c2)sc1-c1nnc[nH]1 (stereo not drawn) [Compound 147] |  | 107 | 96 | 18 | 83 |  |  | 
N#Cc1c(-c2ccncc2)sc(-c2nnc[nH]2)c1Cc1ccc2ccccc2c1 [Compound 148] |  | 69 | 98 | 34 | 41 |  |  | 
COc1cc(C(O)c2cc(-c3ccnc(Cl)c3)sc2-c2nnc[nH]2)c(F)cc1Cl (stereo not drawn) [Compound 149] | 54 |  |  |  |  | 117 | 109 | 75
Nc1nccc(-c2sc(-c3ccncc3)nc2Cc2ccc(Cl)cc2)n1 [Compound 150, 4-(4-(4-chlorobenzyl)-2-(pyridin-4-yl)thiazol-5-yl)pyrimidin-2-amine] |  | 35 | 54 | 6 | 2 |  |  | 
CC(=O)Nc1cc(-c2cc(C(c3ccc(Cl)cc3)N3CCC3)c(-c3nnc[nH]3)s2)ccn1 (stereo not drawn) [Compound 151] |  | 108 | 105 | 17 | 72 |  |  | 
COC(=O)Nc1cc(-c2cc(C(c3ccc(Cl)cc3)N3CCNCC3)c(-c3nnc[nH]3)s2)ccn1 (stereo not drawn) [Compound 152] |  | 106 | 97 | 16 | 61 |  |  | 
CC(=O)Nc1cc(-c2sc(-c3nnc[nH]3)c(C(O)c3ccc4ccccc4n3)c2C#N)ccn1 (stereo not drawn) [Compound 153] |  | 87 | 84 | 11 | 75 |  |  | 
CC(=O)Nc1cc(-c2cc(C(c3ccc(Cl)cc3)N3CCNCC3)c(-c3nnc[nH]3)s2)ccn1 (stereo not drawn) [Compound 154] |  | 108 | 108 | 39 | 79 |  |  | 
OC(c1ccccc1F)c1cc(-c2ccncc2)sc1-c1nnc[nH]1 (stereo not drawn) [Compound 155] |  | 53 | 64 | 28 | 29 |  |  | 

The next lines start with the values.

p110 alpha Percent Inhibition (Human PI3K alpha) [%] | inhibition at 1 µM (Human PI3K delta) [%] | inhibition at 1.1 µM (Human PI3K beta) [%] | inhibition at 1 µM (Human PI3K gamma) [%] | inhibition at 1.1 µM (Human PI3K alpha) [%] | p110 delta Percent Inhibition (Human PI3K delta) [%] | p110 beta Percent Inhibition (Human PI3K beta) [%] | p110 gamma Percent Inhibition (Human PI3K gamma) [%] | SMILES
 | 101 | 68 | 7 | 55 |  |  |  | CC(=O)Nc1cc(-c2cc(C(c3ccc(Cl)cc3)N3CCN(CC(F)(F)F)CC3)c(-c3nnc[nH]3)s2)ccn1 (stereo not drawn) [Compound 157]
 | 69 | 94 | 20 | 18 |  |  |  | COc1ccc(C(O)c2cc(-c3ccncc3)sc2-c2nnc[nH]2)c(C)c1 (stereo not drawn) [Compound 158]
 | 31 | 61 | 5 | 18 |  |  |  | OC(c1cccc(C(F)(F)F)c1)c1cc(-c2ccncc2)sc1-c1nnc[nH]1 (stereo not drawn) [Compound 159]
 | 107 | 101 | 20 | 74 |  |  |  | CC(=O)Nc1cc(-c2cc(C(c3ccc(Cl)cc3)N(C)C3CN(C)C3)c(-c3nnc[nH]3)s2)ccn1 (stereo not drawn) [Compound 160]
 | 40 | 60 | 7 | 14 |  |  |  | Cc1cc(-c2cc(C(c3ccc(Cl)cc3)N(C)C)c(-c3nnc[nH]3)s2)ccn1 (stereo not drawn) [Compound 161]
 | 83 | 93 | 33 | 38 |  |  |  | OC(c1ccc(F)cc1F)c1cc(-c2ccncc2)sc1-c1nnc[nH]1 (stereo not drawn) [Compound 162]
 | 106 | 110 | 25 | 97 |  |  |  | CN[C@H]1CCN(C(c2ccc(Cl)cc2)c2cc(-c3ccnc(NC(C)=O)c3)sc2-c2nnc[nH]2)C1 (stereo partly drawn) [Compound 163]
 | 112 | 107 | 44 | 100 |  |  |  | CC(=O)Nc1cc(-c2cc(C(c3ccc(Cl)cc3)N3CC[C@H](O)C3)c(-c3nnc[nH]3)s2)ccn1 (stereo partly drawn) [Compound 164]
 | 87 | 77 | 14 | 64 |  |  |  | CC(=O)Nc1cc(-c2sc(-c3nnc[nH]3)c(C(O)c3ccc(Cl)cc3)c2C#N)ccn1 (stereo not drawn) [Compound 165]
 | 85 | 82 | 3 | 92 |  |  |  | CC(=O)Nc1cc(-c2sc(-c3nnc[nH]3)c(Sc3ccc(Cl)cc3)c2C#N)ccn1 [Compound 166]
 | 110 | 103 | 26 | 105 |  |  |  | CC(=O)Nc1cc(-c2cc(C(c3ccc(Cl)cc3)n3ccnc3)c(-c3nnc[nH]3)s2)ccn1 (stereo not drawn) [Compound 167]
23 |  |  |  |  | 110 | 107 | 58 | COc1cc(C(O)c2cc(-c3ccnnc3)sc2-c2nnc[nH]2)c(F)cc1Cl (stereo not drawn) [Compound 168]
 | 65 | 89 | 7 | 65 |  |  |  | OC(c1cc(-c2ccncc2)sc1-c1nnc[nH]1)c1cccc2nccnc12 (stereo not drawn) [Compound 169]
 | 105 | 106 | 26 | 84 |  |  |  | CNC1CN(C(c2ccc(Cl)cc2)c2cc(-c3ccnc(NC(C)=O)c3)sc2-c2nnc[nH]2)C1 (stereo not drawn) [Compound 170]
 | 99 | 106 | 60 | 59 |  |  |  | OC(c1ccc2ccccc2n1)c1cc(-c2ccncc2)sc1-c1nnc[nH]1 (stereo not drawn) [Compound 171]
